In patent EP4752139A1, “BRANCHED MULTI-HYDROXYL-PROTECTING OLIGOMER, LINKED BODY BONDED THEREWITH, AND BRANCHED MULTI-HYDROXYL OLIGOMER OBTAINED BY DEPROTECTING SAID LINKED BODY” (Tomoike Bio Ltd., priority 2023, dated 2025):

Assay: Evaluation of water solubility of deprotected pterostilbene linked bodies
Assay type: physicochemical
Conditions: ion-exchanged water; solubility threshold could not be measured because the compound was extremely water-soluble
Description: The deprotected pterostilbene linked body obtained in Examples were evaluated for water solubility using the following method. In FIGs 1 and 2, the numbers in the ellipses for each compound represent a level of water solubility as a molar ratio, with the water solubility of F1 (pterostilbene) (21 mg (0.0819 mmol) dissolved in 1 liter) being set at 1.0. The water solubility of F1 (pterostilbene) was determined using the value described in Sarah J. Bethune et al., Cryst. Growth Des. 2011, 11, 2817-2823. The water solubility of F1 glycoside (pterostilbene monoglycoside) was determined using the value described in Jose L. Gonzalez-Alfonso et al., Molecules 2018, 23, 1271.
Into a round-bottom flask was weighed 1.0 g of the compound and 100 mL of ion-exchanged water in sequence and the mixture was heated with a heat gun for about 1 minute, taking care not to boil the mixture, and then cooled to room temperature and allowed to stand. After 24 hours, the residue was removed by filtration, and the filtrate was concentrated under reduced pressure. A water solubility of each compound was calculated from the weight of the compound recovered from the filtrate.
In a round-bottom flask, a solution was prepared the amounts of the compound and ion-exchanged water shown in Figure 1, and a water solubility of the compound was calculated. Because the compound was extremely water-soluble, a water solubility threshold could not be measured. However, compared to the hardly water-soluble F1, its water solubility was 2×10^4 times or more, that is, extremely higher.

| SMILES | water solubility compared to the hardly water-soluble F1 |
| --- | --- |
| COc1cc(/C=C/c2ccc(OCC(COC(CO)CO)(COC(CO)CO)COC(CO)CO)cc2)cc(OC)c1 [H129, (E)-2,2'-((2-(((1,3-dihydroxypropan-2-yl)oxy)methyl)-2-((4-(3,5-dimethoxystyryl)phenoxy)methyl)propane-1,3-diyl)bis(oxy))bis(propane-1,3-diol)] | ≥ 2×10^4 times |
| COc1cc(/C=C/c2ccc(OCC(COCC(O)CO)(COCC(O)CO)COCC(O)CO)cc2)cc(OC)c1 (stereo not drawn) [H139, (E)-3,3'-((2-((2,3-dihydroxypropoxy)methyl)-2-((4-(3,5-dimethoxystyryl)phenoxy)methyl)propane-1,3-diyl)bis(oxy))bis(propane-1,2-diol)] | ≥ 2×10^4 times |
| COc1cc(/C=C/c2ccc(OCC(CO)(CO)COCC(COCC(CO)(CO)CO)(COCC(CO)(CO)CO)COCC(CO)(CO)CO)cc2)cc(OC)c1 [J119, (E)-2,2'-(((2-((3-(4-(3,5-dimethoxystyryl)phenoxy)-2,2-bis(hydroxymethyl)propoxy)methyl)-2-((3-hydroxy-2,2-bis(hydroxymethyl)propoxy)methyl)propane-1,3-diyl)bis(oxy))bis(methylene))bis(2-(hydroxymethyl)propane-1,3-diol)] | ≥ 2×10^4 times |
| COc1cc(/C=C/c2ccc(OCC(CO)(CO)COCC(COC(CO)CO)(COC(CO)CO)COC(CO)CO)cc2)cc(OC)c1 [J129, (E)-2,2'-((2-(((1,3-dihydroxypropan-2-yl)oxy)methyl)-2-((3-(4-(3,5-dimethoxystyryl)phenoxy)-2,2-bis(hydroxymethyl)propoxy)methyl)propane-1,3-diyl)bis(oxy))bis(propane-1,3-diol)] | ≥ 2×10^4 times |
| COc1cc(/C=C/c2ccc(OCC(CO)(CO)COCC(COCC(O)CO)(COCC(O)CO)COCC(O)CO)cc2)cc(OC)c1 (stereo not drawn) [J139, (E)-3,3'-((2-((2,3-dihydroxypropoxy)methyl)-2-((3-(4-(3,5-dimethoxystyryl)phenoxy)-2,2-bis(hydroxymethyl)propoxy)methyl)propane-1,3-diyl)bis(oxy))bis(propane-1,2-diol)] | ≥ 2×10^4 times |
| COc1cc(/C=C/c2ccc(OCC(CO)(CO)COC(COCC(CO)(CO)CO)COCC(CO)(CO)CO)cc2)cc(OC)c1 [J219, (E)-2,2'-(((2-(3-(4-(3,5-dimethoxystyryl)phenoxy)-2,2-bis(hydroxymethyl)propoxy)propane-1,3-diyl)bis(oxy))bis(methylene))bis(2-(hydroxymethyl)propane-1,3-diol)] | ≥ 2×10^4 times |
| COc1cc(/C=C/c2ccc(OCC(CO)(CO)COC(COC(CO)CO)COC(CO)CO)cc2)cc(OC)c1 [J229, (E)-2,2'-((2-(3-(4-(3,5-dimethoxystyryl)phenoxy)-2,2-bis(hydroxymethyl)propoxy)propane-1,3-diyl)bis(oxy))bis(propane-1,3-diol)] | ≥ 2×10^4 times |
| COc1cc(/C=C/c2ccc(OCC(CO)(CO)COC(COCC(O)CO)COCC(O)CO)cc2)cc(OC)c1 (stereo not drawn) [J239, (E)-3,3'-((2-(3-(4-(3,5-dimethoxystyryl)phenoxy)-2,2-bis(hydroxymethyl)propoxy)propane-1,3-diyl)bis(oxy))bis(propane-1,2-diol)] | ≥ 2×10^4 times |

Same assay, conditions: water solubility of F1 (pterostilbene) set at 1.0 (reference)

| SMILES | level of water solubility as a molar ratio |
| --- | --- |
| COc1cc(/C=C/c2ccc(O)cc2)cc(OC)c1 [F1, (E)-4-(3,5-dimethoxystyryl)phenol, reference compound] | 1.0 |
